# Assays:
# IRF = IRF reporter activity in THP1-Dual cells treated with conditioned media and/or compounds (QuantiLuc); type: cell-based, human
# Experimental: (§1) HeLa cervical cancer cells were grown in either DMEM containing 10% FBS (standard culture conditions), or in PBS (nutrient-deprivation) for 48 hours. Conditioned media from each condition was then transferred to THP1-Dual cells in the presence of 300 ng/ml of 2′3′-cGAMP (purchased from Invivogen, cat no. tlrl-nacga23, and resuspended in water). THP1 cells treated with conditioned media were incubated for an additional 24 hours. THP1 supernatants were then assessed for NfkB or IRF reporter activity.
# (§2) HeLa cells were acquired from the ATCC (catalog no. CCL 2.2) and were cultured in DMEM containing 10% FBS. THP1-Dual cells, which are human monocytes that report on both the NfkB and IRF pathways, were purchased from Invivogen (cat no. thpd-nfis) and were cultured in RPMI containing 10% FBS and 100 μg/ml normocin.
# (§3) To generate conditioned media, 3 million HeLa cells were seeded in a 10 cm dish in DMEM containing 10% FBS. Cells were left overnight to adhere and then plates were washed 3× with PBS prior to replacing media with either fresh DMEM containing 10% FBS, or with PBS. Cells were incubated for 48 hours, and then the conditioned media was removed, spun down and sterile filtered.
# (§4) To measure IRF or NfkB pathway activation, 35,000 THP1-Dual cells/well were seeded in a 96-well plate (100 μl/well). 100 μl of HeLa conditioned media was transferred to each well, plus or minus 2′3′-cGAMP (300 ng/ml final concentration). After a 24 hour incubation period, IRF and NfkB activity were measured. To measure IRF activity, 50 μl of THP1 supernatant was transferred to a 96-well plate, and 50 μl of QuantiLuc reagent was added to each well immediately prior to reading luminescence by a platereader. To measure NfkB activity, 50 μl of THP1 supernatant was transferred to a 96-well plate containing 200 μl of QuantiBlue reagent. The plate was then incubated at room temperature for 2-3 hours prior to reading the absorbance at 655 nm.
# THP1-Dual cells (acquired from Invivogen) were seeded at 35,000 cells/well in a 96-well plate (100 μl/well). In a separate treatment plate, a 3-fold dose-response curve of each CDN was prepared, starting at 40 μg/ml, in either plain PBS or in combination with HeLa-PBS conditioned media (conditioned media prepared as previously described). 100 μl of compound treatment was transferred to THP1 cells (1:1 dilution) and cells were incubated for 24 hours. THP1 supernatants were subsequently removed and assayed for IRF activity.
# THP1-Dual cells were plated at 35,000 cells/well in 96-well format. To each well, 100 μl of conditioned media was added (in triplicate) in the presence or absence of 2′3′-cGAMP (300 ng/ml). THP1-Dual cells were then incubated for 24 hours with conditioned media prior to assaying IRF induction.
# THP1-Dual cells (acquired from Invivogen) were seeded at 35,000 cells/well in a 96-well plate (100 μl/well). In a separate treatment plate, a 3-fold dose-response curve of each purinergic receptor antagonist was prepared, starting at 20 μM, in either 2′3′-cGAMP alone or 2′3′-cGAMP in combination with HeLa-PBS conditioned media (conditioned media prepared as described in examples above). 100 μl from the treatment plate was then transferred to THP1 cells (1:1 dilution), and the cells were incubated for 24 hours. THP1 supernatants were removed and tested for IRF activity.
# THP1 cells, acquired from Invivogen, were seeded at 35,000 cells/well in 96-well format, in 100 μl media. In a separate treatment plate, a dose curve of PSB 1114, starting at 20 μM, was prepared in either plain PBS, or in the presence of cGAMP. 100 μl from treatment plate was transferred to THP1 cells (1:1 dilution), and cells were incubated for 24 hours prior to IRF and NfkB read-out.
# THP1 cells, acquired from Invivogen, were seeded at 35,000 cells/well in 96-well format, in 100 μl media. In a separate treatment plate, a dose curve of Diquafosol (acquired from MedChemExpress), starting at 100 μM, was prepared in either plain PBS, or in the presence of cGAMP. […]
# NfkB = NfkB reporter activity in THP1-Dual cells (QuantiBlue); type: cell-based, human; conditions: 24 hours
# Experimental: as §1
# as §2, with “normocin. […]” for “normocin.”
# as §4, with “100 μl of HeLa conditioned media was transferred to each well, plus or minus 2′3′-cGAMP (300 ng/ml final concentration).” left out, “To measure NfkB activity, 50 μl of THP1 supernatant was transferred to a 96-well plate containing 200 μl of QuantiBlue reagent.” left out
# IFN-beta [1] = experiment: IFN-beta secretion from THP1 monocytes (ELISA); type: cell-based, human; conditions: THP1 monocytes exposed to HeLa/PBS conditioned media in combination with 2′3′-cGAMP 300 ng/ml, 24 hours
# Experimental: (§5) HeLa cervical cancer cells were grown in PBS (nutrient-deprivation) for 48 hours. THP1 cells were then treated with the HeLa-PBS (nutrient deprived) conditioned media in the presence and absence of 2′3′-cGAMP. THP1 supernatants were then assayed for the secretion of IFN-beta, a cytokine regulated by IRF. The same experiment was additionally performed using the mouse macrophage cell line J774 in place of the THP1 cells.
# as §3
# 500,000 THP1-Dual cells/well were seeded in a 24-well plate. 500 μl (1:1 dilution) of each condition was added to the well (PBS; PBS+300 ng/ml cGAMP; HeLa-PBS CM; HeLa-PBS CM+300 ng/ml cGAMP) and incubated for 24 hours. Cell supernatants were then spun down and sterile filtered prior to performing ELISA assay. ELISA assay was performed using the human IFN-beta DuoSet ELISA kit (DY814-05) and following the protocol provided by the manufacturer.
# IFN-beta [2] = experiment: IFN-beta secretion from J774 macrophages (ELISA); type: cell-based, mouse; conditions: J774 macrophages exposed to HeLa/PBS conditioned media in combination with 2′3′-cGAMP, 24 hours
# Experimental: as §5, §3
# The same experiment was additionally performed using J774 cells (ATCC, TIB-67). In brief 500,000 cells/well were seeded in a 24-well plate. After cell adherence, media was refreshed, and HeLa conditioned media was added either in the presence or absence of 2′3′-cGAMP (as described above). After 24 hours J774 supernatant was removed an assayed for IFN-beta secretion as described above.
# [3] = test system: A20 B-cell lymphoma tumor cells; experiment: Survival in mouse model of A20 B-cell lymphoma; type: in vivo, BALB/c mice; conditions: combination of 1 μg/kg ADU-S100 and 10 mg/animal diquafosol tetrasodium intratumorally once per day (Group 5), relative to either agent alone (Groups 2, 4)
# Experimental: Test BALB/c mice were injected subcutaneously in the right flank with 1×10^6 A20 B-cell lymphoma tumor cells (in a 0.1 mL cell suspension). Sixteen days after tumor cell implantation, on Day 1 of the study, animals were sorted into ten groups (n=10) with individual tumor volumes between 48 and 100 mm^3 and a group mean tumor volume of 81 mm^3. Five groups of mice were dosed according in the following treatment groups.
# Group 1 received Vehicle (PBS) intratumorally once per day. • Group 2 received 1 μg/kg of the STING agonist (ADU-S100) intratumorally once per day. • Group 3 received 50 μg/kg of the STING agonist (ADU-S100) intratumorally once per day. • Group 4 received 10 mg/animal of the purinergic receptor agonist (diquafosol testrasodium) intratumorally once per day. • Group 5 received 1 μg/kg ADU-S100 intratumorally combined with 10 mg/animal of diquafosol testrasodium intratumorally once per day.
# ADU-S100 and Diquafosol tetrasodum were dosed intratumorally (itu) in a total volume of 50 μL of therapeutic agents; combination therapies were administered as single injections containing 2×25 μL of 2× dosing solutions.
# Tumors were measured using calipers twice per week.
# human STING alleles = conditions: HEK293T cells; Corrales et al., 2015; cited from earlier work
# IFN-β = conditions: PBMCs isolated from multiple donors with different STING genotypes; Corrales et al., 2015; cited from earlier work
# B16.F10 melanoma = conditions: Corrales et al., 2015; cited from earlier work
# 4T1 mammary carcinoma = conditions: Corrales et al., 2015; cited from earlier work
# CT26 colon carcinoma = conditions: Corrales et al., 2015; cited from earlier work
# [4] = combination of Diquafosol (dose curve starting at 100 μM) and cGAMP, THP1 cells, 24 hours
# [5] = combination of PSB 1114 (dose curve starting at 20 μM) and 2′3′-cGAMP, THP1 cells, 24 hours
# [6] = combination of Diquafosol (dose curve starting at 100 μM) and ADU-S100 (2 μM), THP1 cells, 24 hours
compound,measurement,setting,value
Nc1nc2c(ncn2[C@@H]2O[C@@H]3COP(=O)(O)O[C@H]4[C@@H](O)[C@H](n5cnc6c(N)ncnc65)O[C@@H]4COP(=O)(O)O[C@@H]2[C@@H]3O)c(=O)[nH]1 [2′3′-cGAMP],IRF signaling,IRF; [4],induced IRF signaling
same,IRF signaling,IRF; [5],induced IRF signaling
same,IRF signaling,"IRF; combination of conditioned media from HeLa cells in DMEM+10% FBS (standard culture) and 2′3′-cGAMP 300 ng/ml, THP1-Dual cells, 24 hours",only slightly induced
same,IRF signaling,"IRF; combination of nutrient-starved (PBS, 48 hours) HeLa conditioned media and 2′3′-cGAMP 300 ng/ml, THP1-Dual cells, 24 hours",increased
same,IRF signaling,"IRF; combinations of cGAMP with purinergic receptor agonist nucleotide triphosphates, human monocytes, data not shown",induced IRF signaling
same,IRF activation,"IRF; conditioned media (PBS, 48 hours) of A549, A427, J774, AMJ2C11, PANC1, MLE12, RAW264, Calu-1, MCF7 cells in combination with 2′3′-cGAMP 300 ng/ml, THP1-Dual cells, 24 hours",induced IRF activation
same,NFKB signaling,NfkB; combination of conditioned media from HeLa cells in DMEM+10% FBS (standard culture) and 2′3′-cGAMP 300 ng/ml,only slightly induced
same,NFKB signaling,"NfkB; combination of nutrient-starved (PBS, 48 hours) HeLa conditioned media and 2′3′-cGAMP 300 ng/ml",increased
same,IFN-beta secretion,IFN-beta [1],increased
same,IFN-beta secretion,IFN-beta [2],increased
Nc1ncnc2c1ncn2[C@@H]1O[C@@H]2COP(=O)([S-])O[C@@H]3[C@H](O)[C@@H](COP([O-])(=S)O[C@H]2[C@H]1O)O[C@H]3n1cnc2c(N)ncnc21.[Na+].[Na+] (some centres unmarked) [ADU-S100],IRF signaling,"IRF; combination of ADU-S100 (dose curve starting at 20 μM) and nutrient starved (PBS) HeLa conditioned media, THP1 cells, 24 hours",strongly increased IRF signaling
same,IRF signaling,IRF; [6],synergizes
same,survival,[3],much greater effect on increasing survival
same,STING activation,human STING alleles,broadly activate all known human STING alleles
same,expression of IFN-β,IFN-β,induced dose-dependent expression of IFN-β
same,antitumor immune response and tumor regression,B16.F10 melanoma,potent antitumor immune response and significant tumor regression
same,antitumor immune response and tumor regression,4T1 mammary carcinoma,potent antitumor immune response and significant tumor regression
same,antitumor immune response and tumor regression,CT26 colon carcinoma,potent antitumor immune response and significant tumor regression
Cc1ccc2c(c1)C=Cc1cc(C)ccc1C2c1cn(Cc2ccc(C(=O)Nc3nn[nH]n3)o2)c(=O)[nH]c1=S [AR-C 118925],synergistic induction of IRF activity by cGAMP in combination with HeLa-PBS conditioned media,"IRF; purinergic receptor antagonist 3-fold dose-response starting at 20 μM, THP1-Dual cells, 24 hours",inhibited
O=c1ccn([C@@H]2O[C@H](COP(=O)(O)OP(=O)(O)OP(=O)(O)OP(=O)(O)OC[C@H]3O[C@@H](n4ccc(=O)[nH]c4=O)[C@H](O)[C@@H]3O)[C@@H](O)[C@H]2O)c(=O)[nH]1 [Diquafosol],IRF signaling,IRF; [6],synergizes
same,IRF signaling,IRF; [4],induced IRF signaling
same,survival,[3],much greater effect on increasing survival
O=c1[nH]c(=S)ccn1[C@@H]1O[C@H](COP(=O)(O)OP(=O)(O)C(F)(F)P(=O)(O)O)[C@@H](O)[C@H]1O [PSB 1114],IRF signaling,IRF; [5],induced IRF signaling
